The source of these data is PMC10380619, “Inhibitor Trapping in N-Myristoyltransferases as a Mechanism for Drug Potency” (International Journal of Molecular Sciences, 2023).

One experiment deals with NMT. Particulars: cited from earlier work; for IC50: fragments as single agents.
Experiment [1] addresses T1, full-length recombinant HsNMT1 enzyme (Homo sapiens, UniProt P30419).
T1 construct: 18.9 nM full-length recombinant HsNMT1 enzyme was incubated; purchased Fitzgerald Industries International 80R-4067
T1 sequence (P30419 1-496): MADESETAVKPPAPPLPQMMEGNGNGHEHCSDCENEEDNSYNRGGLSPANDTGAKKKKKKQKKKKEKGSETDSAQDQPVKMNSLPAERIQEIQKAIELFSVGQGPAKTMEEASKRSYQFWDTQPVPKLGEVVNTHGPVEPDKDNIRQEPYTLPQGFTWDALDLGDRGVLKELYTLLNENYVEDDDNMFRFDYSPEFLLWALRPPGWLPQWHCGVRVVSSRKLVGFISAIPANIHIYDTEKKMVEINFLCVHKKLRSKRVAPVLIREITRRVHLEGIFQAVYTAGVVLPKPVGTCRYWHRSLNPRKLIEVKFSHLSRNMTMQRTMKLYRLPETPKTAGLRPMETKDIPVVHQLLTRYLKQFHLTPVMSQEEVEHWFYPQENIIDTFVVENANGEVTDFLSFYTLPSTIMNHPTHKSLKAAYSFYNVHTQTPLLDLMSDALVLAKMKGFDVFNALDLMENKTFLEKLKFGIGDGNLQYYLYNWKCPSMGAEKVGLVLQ
The experiment can be described thus: fluorogenic NMT inhibition assay. It counts as biochemical. The procedure:
Materials and reagents. […] The ZINC IDs and the structures of the compounds are included in Table S1. […] CPM (7-Diethylamino-3- (4-maleimidophenyl)-4-methylcoumarin) and Myristoyl-CoA were purchased from Cayman Chemicals, and the buffer components from Merck (Kenilworth, NJ, USA).
NMT inhibition assay. IC50 values were determined using a fluorogenic NMT assay, as previously described. The assay detects Coenzyme A (CoA), which is released as a byproduct of the enzymatic reaction. […] The reactions were performed in reaction buffer (20 mM potassium phosphate, pH 8.0, 0.5 mM EDTA, 0.1% (v/v) Triton® X-100) in 44 µL volume in a 96-well black plate. To eliminate the background fluorescence, reactions were also performed in the absence of the NMT1 enzyme for each concentration of the ligands. […] Fluorescence was measured at an excitation wavelength of 380 nm and an emission wavelength of 470 nm with a CLARIOstar fluorescent reader (BMG LABTECH GmbH, Ortenberg, Germany). The fluorescent values of samples obtained in the absence of NMT1 were subtracted from the fluorescent signal of samples performed in the presence of NMT1 to eliminate the background signal. The subtracted values were plotted in GraphPad Prism using a log (inhibitor concentration) vs. normalized response nonlinear fit to generate inhibitory curves and determine IC50 values.

As for `Cc1cc(F)ccc1-c1ccc2[nH]nc(CN(C)C)c2c1` [IMP-72], the IC50 (commonly the concentration at which inhibition is half-maximal) with NMT was 20 µM. Moreover, the “fold reduction of IC50 of IMP-72 by IMP-358” value with NMT (in the presence of 100 µM IMP-358) is on record as 308 fold.
For `CCOC(=O)c1c(C)nc2ccccc2c1C` [IMP-358], the IC50 with NMT is > 100 µM.
Take `Cc1nc(Nc2cnn(C3CCNCC3)c2)nc2c1N(C)C(=O)c1cc3ccccc3cc1N2C` [compound 11]: the IC50 in experiment [1] (18.9 nM HsNMT1, 4 µM Myristoyl-CoA, 4 µM substrate peptide, highest concentration 100 µM) is > 100 µM. Moreover, in experiment [1] (at concentration of the compounds 100 µM), the % Inhibition (as a rule, the drop in the measured response relative to a control, in per cent) came out at 0%. Further, in experiment [1] (ratio of IC50 of each compound to IC50 of IMP-1088), the “Fold Potency” value is given as >13,158.
